Data published in publication PMC11597353, “Synthesis of Novel Gefitinib-Conjugated 1,2,3-Triazole Derivatives and Their Effect of Inducing DNA Damage and Apoptosis in Tumor Cells” (Molecules, 2024).

What was measured:
[1] = system: HepG2 cells; experiment: Scratch wound healing assay; assay type: cell-based, human
Text: To investigate the effect of the compounds on the migration of wild-type liver cancer cells, we conducted wound healing and Transwell assays to assess changes in the migration ability of HepG2 cells after treatment with compounds 11m and 11t. […] The Transwell migration assay, another important method for evaluating cell migration, involves seeding tumor cells in a chamber and assessing their migration ability by counting the number of cells that pass through the membrane. […] These findings indicate that compounds 11m and 11t can inhibit the migration ability of liver cancer cells in a concentration-dependent manner.
HepG2 cells were seeded in 24-well plates, and when the cell density reached 95%, a vertical scratch was made along the edge of the plate cover using a yellow pipette tip. After washing with PBS, images of the scratches were taken at 0 h under a microscope, and each well was treated with 11m or 11t (0, 2, 4, and 8 μM) and incubated in a cell culture incubator. Images were taken at 12, 24, and 48 h after the scratch was made.

[2] = system: p-H2AX in HepG2 cells; experiment: DNA damage immunofluorescence and Western blot of p-H2AX; assay type: cell-based, human; conditions: HepG2, 2, 4, 8 μM
Protocol: Previous studies have reported that the phosphorylation of H2AX is a highly specific and sensitive molecular marker of DNA damage. To determine whether the inhibitory effects of compounds 11m and 11t on HepG2 cells are related to p-H2AX, we conducted immunofluorescence and Western blot analyses.
HepG2 cells were seeded in laser confocal culture dishes (Nest, Wuxi, China) and incubated for 24 h, followed by treatment with 11m or 11t (2, 4, and 8 μM) for 24 h. After washing with PBS, cells were fixed with 4% paraformaldehyde at room temperature for 20 min. After washing with PBS, cells were permeabilized with 0.5% Triton X-100 for 20 min, followed by further washing with PBS. Cells were then blocked with goat serum at room temperature for 1 h, followed by incubation with p-H2AX (Cell Signaling Technology, Beverly, MA, USA) at a dilution of 1:500 overnight at 4 °C. After washing with PBS, cells were incubated with Cy3 (Proteintech, Wuhan, China) at a dilution of 1:100 in the dark at room temperature for 1 h. After washing with PBS, nuclei were stained with DAPI for 5 min. Cells were observed and imaged using an oil immersion lens under a laser confocal microscope (Nikon, Tokyo, Japan).
HepG2 cells were seeded in 6-well plates and incubated for 24 h. […] Protein supernatants were mixed with loading buffer, denatured at 100 °C for 10 min, and quantified using BCA. […]

[3] = system: Kunming mice; experiment: Acute toxicity test in mice; assay type: in vivo
Protocol: To further assess the safety of the compounds, we conducted an acute toxicity experiment on mice.
Liver function was evaluated by measuring serum glutamic pyruvic transaminase (GPT) and glutamic oxaloacetic transaminase (GOT) levels (Figure 10C). GPT and GOT are commonly used indicators for assessing liver function, reflecting physiological and pathological changes in the liver. Elevated serum levels of GPT and GOT indicate damage to liver cells or mitochondria. […] This provides additional evidence for the high safety of the compound and experimental data for clinical drug safety (p > 0.05).
Six 5-week-old, SPF-grade, healthy, male Kunming mice (31.13 ± 1.13 g) were purchased from Henan Skibest Biotechnology Co., Ltd. (Anyang, China) (License No.: SCXK (Yu) 2020-0005). They were housed at the SPF animal center of the School of Basic Medicine and Forensic Science, Henan University of Science and Technology, with normal solid food and drinking water provided, and a 12 h light–dark cycle each day. After one week of acclimatization, the mice were randomly divided into two groups: the control group and the treatment group (11t), which were administered a single gavage of the corresponding volume of solvent and drug (drug concentration: 800 mg/kg; drug solvent: 10% DMSO + 40% PEG300 + 5% Tween 80 + 45% saline) at a dosage of 0.1 mL/10 g. After administration, the mice’s activity was monitored daily, and their weight was recorded. After 14 days, blood was collected via the eye and the mice were euthanized by cervical dislocation. The heart, liver, spleen, lungs, and kidneys were extracted, rinsed with saline, and the surface moisture was absorbed with filter paper. The weight of all organs was measured using an electronic balance. The organ coefficient was calculated as organ weight/body weight × 100. Blood samples were left at room temperature for 1 h, then centrifuged at 2500 rpm for 20 min to measure liver function indicators GPT and GOT (Nanjing Jiancheng Bioengineering Institute, Nanjing, China). After weighing the organs, they were fixed in 4% tissue fixative for 24 h, dehydrated, cleared, embedded in paraffin, and stained with HE for microscopic observation of the tissues.

[4] = mice, single gavage 800 mg/kg, day 14

Structure (SMILES): COc1cc2ncnc(Nc3cccc(-c4cn(Cc5ccc(I)cc5)nn4)c3)c2cc1OCCCN1CCOCC1 [Compound 11m, N-(3-(1-(4-iodobenzyl)-1H-1,2,3-triazol-4-yl)phenyl)-7-methoxy-6-(3-morpholinopropoxy)quinazolin-4-amine]
- wound-healing rate ([1]; HepG2, 2 μM, 12 h): 14.32%
- wound-healing rate ([1]; HepG2, 2 μM, 24 h): 20.33%
- wound-healing rate ([1]; HepG2, 2 μM, 48 h): 41.13%
- wound-healing rate ([1]; HepG2, 4 μM, 12 h): 13.89%
- wound-healing rate ([1]; HepG2, 4 μM, 24 h): 20.60%
- wound-healing rate ([1]; HepG2, 4 μM, 48 h): 36.35%
- wound-healing rate ([1]; HepG2, 8 μM, 12 h): 8.96%
- wound-healing rate ([1]; HepG2, 8 μM, 24 h): 16.39%
- wound-healing rate ([1]; HepG2, 8 μM, 48 h): 18.48%
- expression of p-H2AX [2]: increased
- melting point: 185 to 186 °C

Structure (SMILES): COc1cc2ncnc(Nc3cccc(-c4cn(Cc5cccc(I)c5)nn4)c3)c2cc1OCCCN1CCOCC1 [Compound 11t, N-(3-(1-(3-iodobenzyl)-1H-1,2,3-triazol-4-yl)phenyl)-7-methoxy-6-(3-morpholinopropoxy)quinazolin-4-amine]
- wound-healing rate ([1]; HepG2, 2 μM, 12 h): 11.03%
- wound-healing rate ([1]; HepG2, 2 μM, 24 h): 16.02%
- wound-healing rate ([1]; HepG2, 2 μM, 48 h): 35.36%
- wound-healing rate ([1]; HepG2, 4 μM, 12 h): 14.18%
- wound-healing rate ([1]; HepG2, 4 μM, 24 h): 25.67%
- wound-healing rate ([1]; HepG2, 4 μM, 48 h): 33.66%
- wound-healing rate ([1]; HepG2, 8 μM, 12 h): 9.87%
- wound-healing rate ([1]; HepG2, 8 μM, 24 h): 13.26%
- wound-healing rate ([1]; HepG2, 8 μM, 48 h): 19.54%
- expression of p-H2AX [2]: increased
- toxicity in mice ([3]; acute toxicity, 800 mg/kg gavage): low toxicity
- body weight vs control group ([3]; mice, single gavage 800 mg/kg, 14 days, p > 0.05): no statistically significant differences
- histological analysis (H&E) of hearts, livers, spleens, lungs, and kidneys [3, 4]: no significant toxic characteristics
- organ indices of the heart, liver, spleen, lungs, and kidneys vs control group [3, 4]: no statistically significant differences
- organ morphological examination [3, 4]: No pathological morphology was observed
- serum GPT and GOT (biochemical indicators) vs control group ([3]; mice, single gavage 800 mg/kg, day 14, p > 0.05): no statistically significant differences
